Results on 20 molecules are retold here after patent US6713475B2, “Tricyclic benzodiazepines as vasopressin receptor antagonists” (Ortho-McNeil Pharmaceutical, Inc., priority 1999, dated 2004).

In assay [1] the target is T1, human V-1 receptor (Homo sapiens, UniProt P37288).
T1 construct: expressed in transfected cells; host or cells: HEK-293
As to the kind of experiment: In vitro recombinant vasopressin receptor binding assay (V1 Bdg), displacement of 3H-arginine vasopressin. The conditions noted are these: for V1 Bdg % inh: 1 uM; for inhibition at 0.1 µM: read-out: V1 Bdg (% inh, 0.1 uM); for inhibition at 10 µM: read-out: V1 Bdg % inh. The protocol:
(§1) In vitro Recombinant Vasopressin Receptor Binding Assay
(§2) Compounds were assessed for their ability to displace ^3H-arginine vasopressin from the human V-1 or V-2 receptor in HEK-293 cells. Assay buffer is 50 mM Tris-Cl, 5 mM MgCl2, 0.1% BSA (pH 7.5) containing 5 ug/ml of aprotinin, leupeptin, pepstatin, 50 ug/ml bacitracin, and 1 mM Pefabloc. ^3H-vasopressin is ^3H-arginine-8-vasopressin (68.5 Ci/mmol, final concentration in assay is 0.65-0.75 nM). Into wells of 96-well round bottom polypropylene plates were added buffer, test compound, membrane (containing cloned human V-1 or V-2 receptor), and ^3H-vasopressin. The reaction plates were allowed to sit at room temperature for one hour. The samples were filtered through Unifilter GF/C plates (presoaked in 0.3 polyethyleneimine). The plates were washed 5 times with cold physiological saline containing 0.05% Tween 20. After drying, the bottom of the filter plates were sealed and 0.025 ml of Microscint-20 was added to each filter. The top of the plate was sealed, and the plate was counted. Non-specific binding was determined by the addition of 1.25 uM arginine-8-vasopressin in those wells.

Assay [2] deals with V2 (Homo sapiens, UniProt P30518). As to the kind of experiment: In vitro recombinant vasopressin receptor binding assay (V2 Bdg), displacement of 3H-arginine vasopressin. The arrangement: expressed in transfected cells; host or cells: HEK-293. The conditions noted are these: for V2 Bdg % inh: 0.1 uM, printed in parentheses in place of IC50; for IC50: membrane with cloned human V-2 receptor (HEK-293). Here is the method:
as §1
as §2, with “Assay buffer is 50 mM Tris-Cl, 5 mM MgCl2, 0.1% BSA (pH 7.5) containing 5 ug/ml of aprotinin, leupeptin, pepstatin, 50 ug/ml bacitracin, and 1 mM Pefabloc. ^3H-vasopressin is ^3H-arginine-8-vasopressin (68.5 Ci/mmol, final concentration in assay is 0.65-0.75 nM).” left out, “counted.” for “counted. Non-specific binding was determined by the addition of 1.25 uM arginine-8-vasopressin in those wells.”

As usually defined, the IC50 is the concentration at which inhibition is half-maximal.

T1 sequence (P37288 whole entry): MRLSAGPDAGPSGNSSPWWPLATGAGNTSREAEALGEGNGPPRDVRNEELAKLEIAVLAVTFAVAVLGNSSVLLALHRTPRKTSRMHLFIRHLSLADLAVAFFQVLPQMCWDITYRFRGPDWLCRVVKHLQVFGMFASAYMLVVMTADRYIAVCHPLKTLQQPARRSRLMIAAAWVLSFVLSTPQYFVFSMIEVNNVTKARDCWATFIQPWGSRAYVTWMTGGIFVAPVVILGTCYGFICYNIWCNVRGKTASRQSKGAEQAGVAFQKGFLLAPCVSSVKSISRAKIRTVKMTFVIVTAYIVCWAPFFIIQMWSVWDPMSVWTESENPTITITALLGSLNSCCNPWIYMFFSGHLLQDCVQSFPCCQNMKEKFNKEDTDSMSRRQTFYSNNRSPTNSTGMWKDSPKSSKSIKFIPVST

On to `Cc1ccc(-c2ccccc2C(=O)Nc2ccc(C(=O)N3CC4CN(C)CCN4Cc4ccccc43)c(C(F)(F)F)c2)cc1` (racemic) [Compound 76, (RS)-2-(4-Methyl-phenyl)-N-[3-trifluoromethyl-4-(1,3,4,12a-tetrahydro-2-methyl-6H-[1,4]pyrazino[4,3-a][1,4]-benzodiazepin-11(12H)-yl-carbonyl)phenyl]benzamide], for which the “V1 Bdg % inh” value in assay [1] is given as “(18%/1 uM)”. Also, the “V2 Bdg % inh” value in assay [2] is “(50%/0.1 uM)”.

Take `Cc1cc(NC(=O)c2ccccc2-c2ccccc2)ccc1C(=O)N1CC2COCCN2Cc2ccccc21` (racemic) [Compound 29, (RS)-2-Phenyl-N-[3-methyl-4-(1,3,4,12a-tetrahydro-6H-[1,4]oxazino[4,3-a][1,4]-benzodiazepin-11(12H)-yl-carbonyl)phenyl]benzamide]: the inhibition at 0.1 µM in assay [1] worked out at 3%. Further, in assay [2], the IC50 is 6 nM.

`Cc1ccccc1C(=O)Nc1ccc(C(=O)N2CC3COCCN3Cc3ccccc32)c(Cl)c1` (racemic) [Compound 24, (RS)-2-Methyl-N-[3-chloro-4-(1,3,4,12a-tetrahydro-6H-[1,4]oxazino[4,3-a][1,4]-benzodiazepin-11(12H)-yl-carbonyl)phenyl]benzamide]: in assay [1], the inhibition at 0.1 µM stood at 34%. For the same molecule, the IC50 in assay [2] was 16 nM.

`Cc1cccc(C(=O)Nc2ccc(C(=O)N3CC4COCCN4Cc4ccccc43)c(Cl)c2)c1C` (racemic) [Compound 11, (RS)-2,3-Dimethyl-N-[3-chloro-4-(1,3,4,12a-tetrahydro-6H-[1,4]oxazino[4,3-a][1,4]-benzodiazepin-11(12H)-yl-carbonyl)phenyl]benzamide]: in assay [1], the inhibition at 0.1 µM was found to be 11%. Further, the IC50 in assay [2] came to 8 nM.

`COc1cc(NC(=O)c2ccccc2-c2ccc(C)cc2)ccc1C(=O)N1CC2CN(C)CCN2Cc2ccccc21` (racemic) [Compound 85, (RS)-2-(4-Methyl-phenyl)-N-[3-methoxy-4-(1,3,4,12a-tetrahydro-2-methyl-6H-[1,4]pyrazino[4,3-a][1,4]-benzodiazepin-11(12H)-yl-carbonyl)phenyl]benzamide]: the “V1 Bdg % inh” value in assay [1] is listed as “(19%/1 uM)”. In assay [2], the “V2 Bdg % inh” value is listed as “(54%/0.1 uM)”.

As to “(RS)-3,5-Dimethyl-N-[3-chloro-4-(1,3,4,12a-tetrahydro-6H-[1,4]thiazino[4,3-a][1,4]-benzodiazepin-11(12H)-yl-carbonyl)phenyl]benzamide [Compound 41]”, in assay [1], the “V1 Bdg (% inh, 0.1 uM)” value is 5%. Besides, the “V2 Bdg % inh” value in assay [2] is reported as “(38%/0.1 uM)”.

Regarding `COc1cc(C(=O)N2CC3CN(C)CCN3Cc3ccccc32)ccc1NC(=O)c1ccccc1-c1ccccc1` (racemic) [Compound 72, (RS)-2-Phenyl-N-[2-methoxy-4-(1,3,4,12a-tetrahydro-2-methyl-6H-[1,4]pyrazino[4,3-a][1,4]-benzodiazepin-11(12H)-yl-carbonyl)phenyl]benzamide], the “V1 Bdg % inh” value in assay [1] is recorded as “(6%/1 uM)”. The “V2 Bdg % inh” value in assay [2] is on record as “(48%/0.1 uM)”.

Consider `O=C(Nc1ccc(C(=O)N2CC3CN(CC(F)(F)F)CCN3Cc3ccccc32)c(Cl)c1)c1ccccc1-c1ccccc1` (racemic) [Compound 91, (RS)-2-Phenyl-N-[3-chloro-4-(1,3,4,12a-tetrahydro-2-(2,2,2-trifluoroethyl)-6H-[1,4]pyrazino[4,3-a][1,4]-benzodiazepin-11(12H)-yl-carbonyl)phenyl]benzamide], for which the “V1 Bdg % inh” value in assay [1] is given as “(2%/1 uM)”. The “V2 Bdg % inh” value in assay [2] is recorded as “(31%/0.1 uM)”.

For the molecule `O=C(Nc1ccc(C(=O)N2C[C@H]3COCCN3Cc3ccccc32)c(Cl)c1)c1ccccc1-c1ccc(O)cc1` [Compound 5, (S)-2-(4-Hydroxyphenyl)-N-[3-chloro-4-(1,3,4,12a-tetrahydro-6H-[1,4]oxazino[4,3-a][1,4]-benzodiazepin-11(12H)-yl-carbonyl)phenyl]benzamide], in assay [1], the inhibition at 0.1 µM amounted to 29%. Also, in assay [2], the half-maximal inhibitory concentration (IC50) amounted to 9 nM.

For the molecule `O=C(Nc1ccc(C(=O)N2CC3COCCN3Cc3ccccc32)cc1O)c1ccccc1-c1ccccc1` (racemic) [Compound 22, (RS)-2-Phenyl-N-[2-hydroxy-4-(1,3,4,12a-tetrahydro-6H-[1,4]oxazino[4,3-a][1,4]-benzodiazepin-11(12H)-yl-carbonyl)phenyl]benzamide], the inhibition at 0.1 µM in assay [1] was 67%. Moreover, the IC50 in assay [2] was determined as 6 nM.

In the case of `CN1CCN2Cc3ccccc3N(C(=O)c3ccc(NC(=O)c4cc(F)c(F)c(F)c4F)cc3Cl)CC2C1` (racemic) [Compound 93, (RS)-2,3,4,5-Tetrafluoro-N-[3-chloro-4-(1,3,4,12a-tetrahydro-2-methyl-6H-(1,4]pyrazino[4,3-a][1,4]-benzodiazepin-11(12H)-yl-carbonyl)phenyl]benzamide], the “V1 Bdg % inh” value in assay [1] is listed as “(49%/1 uM)”. Also, in assay [2], the “V2 Bdg % inh” value is listed as “(24%/0.1 uM)”.

Regarding `CN1CCN2Cc3ccccc3N(C(=O)c3ccc(NC(=O)c4c(F)cccc4F)cc3Cl)CC2C1` (racemic) [Compound 99, (RS)-2,6-Difluoro-N-[3-chloro-4-(1,3,4,12a-tetrahydro-2-methyl-6H-[1,4]pyrazino[4,3-a][1,4]-benzodiazepin-11(12H)-yl-carbonyl)phenyl]benzamide], the “V1 Bdg % inh” value in assay [1] was “(12%/1 uM)”. Besides, the “V2 Bdg % inh” value in assay [2] is “(10%/0.1 uM)”.

With `CN1CCN2Cc3ccccc3N(C(=O)c3ccc(NC(=O)c4ccccc4-c4ccccc4)cc3)CC2C1` (racemic) [Compound 69, (RS)-2-Phenyl-N-[4-(1,3,4,12a-tetrahydro-2-methyl-6H-[1,4]pyrazino[4,3-a][1,4]-benzodiazepin-11(12H)-yl-carbonyl)phenyl]benzamide], in assay [1], the “V1 Bdg % inh” value is listed as “(22%/1 uM)”. Also, the “V2 Bdg % inh” value in assay [2] is on record as “(38%/0.1 uM)”.

In the case of “(RS)-2-Chloro-5-trifluoromethyl-N-[3-chloro-4-(1,3,4,12a-tetrahydro-6H-[1,4]oxazino[4,3-a][1,4]-benzodiazepin-11(12H)-yl-carbonyl)phenyl]benzamide [Compound 17]”, the “V1 Bdg (% inh, 0.1 uM)” value in assay [1] came out at 13%. Also, the “V2 Bdg % inh” value in assay [2] is recorded as “(63%/0.1 uM)”.

Take `Cc1ccc(-c2ccccc2C(=O)Nc2ccc(C(=O)N3CC4COCCN4Cc4ccccc43)c(Cl)c2)cc1` (racemic) [Compound 25, (RS)-2-(4-Methyl-phenyl)-N-[3-chloro-4-(1,3,4,12a-tetrahydro-6H-[1,4]oxazino[4,3-a][1,4]-benzodiazepin-11(12H)-yl-carbonyl)phenyl]benzamide]: the inhibition at 0.1 µM in assay [1] was determined as 60%. Besides, the IC50 in assay [2] came out at 12 nM.

As for `O=C(Nc1ccc(C(=O)N2CC3CSCCN3Cc3cc(F)c(F)cc32)cc1)c1ccccc1-c1ccccc1` (racemic) [Compound 35, (RS)-2-Phenyl-N-[4-(8,9-difluoro-1,3,4,12a-tetrahydro-6H-[1,4]thiazino[4,3-a][1,4]-benzodiazepin-11(12H)-yl-carbonyl)phenyl]benzamide], the inhibition at 10 µM in assay [1] is 15%. For the same molecule, in assay [2], the IC50 came out at 38 nM.

Take `O=C(Nc1ccc(C(=O)N2CC3COCCN3Cc3ccccc32)c(O)c1)c1ccccc1-c1ccccc1` (racemic) [Compound 23, (RS)-2-Phenyl-N-[3-hydroxy-4-(1,3,4,12a-tetrahydro-6H-[1,4]oxazino[4,3-a][1,4]-benzodiazepin-11(12H)-yl-carbonyl)phenyl]benzamide]: in assay [1], the inhibition at 0.1 µM was determined as 33%. The IC50 in assay [2] worked out at 10 nM.

For the molecule `Cc1c(I)cccc1C(=O)Nc1ccc(C(=O)N2CC3CSCCN3Cc3ccccc32)c(Cl)c1` (racemic) [Compound 44, (RS)-2-Methyl-3-iodo-N-[3-chloro-4-(1,3,4,12a-tetrahydro-6H-[1,4]thiazino[4,3-a][1,4]-benzodiazepin-11(12H)-yl-carbonyl)phenyl]benzamide], in assay [1], the “V1 Bdg (% inh, 0.1 uM)” value came out at 2%. Besides, in assay [2], the “V2 Bdg % inh” value is “(43%/0.1 uM)”.

As to `O=C(Nc1ccc(C(=O)N2CC3COCCN3Cc3ccccc32)c(Cl)c1)c1ccccc1SC(F)F` (racemic) [Compound 19, (RS)-2-(Difluoromethylthio)-N-[3-chloro-4-(1,3,4,12a-tetrahydro-6H-[1,4]oxazino[4,3-a][1,4]-benzodiazepin-11(12H)-yl-carbonyl)phenyl]benzamide], the inhibition at 0.1 µM in assay [1] came to 24%. Moreover, the IC50 in assay [2] is 27 nM.

Regarding `COc1ccc2c(c1)CN1CCSCC1CN2C(=O)c1ccc(NC(=O)c2ccccc2-c2ccccc2)cc1` (racemic) [Compound 31, (RS)-2-Phenyl-N-[4-(8-methoxy-1,3,4,12a-tetrahydro-6H-[1,4]thiazino[4,3-a][1,4]-benzodiazepin-11(12H)-yl-carbonyl)phenyl]benzamide], the inhibition at 10 µM in assay [1] amounted to 27%. In addition, the IC50 in assay [2] was 43 nM.
